Data as given in ChEMBL document CHEMBL5113454, “Design, synthesis, and bioactivity study on Lissodendrins B derivatives as PARP1 inhibitor” (Bioorg Med Chem, 2022).
Active and inactive are the calls of the source. The rule behind the calls is not given here.

How the values were obtained:
[1] = system: MDA-MB-436; experiment: Induction of DNA damage in BRCA1-deficient human MDA-MB-436 cells at 0.1 to 15 uM assessed as increase in accumulation of DNA double-strand breaks measuring gamma-H2AX levels by Western blot analysis; assay type: functional, cell-based; conditions: dose 0.1-15 µM
[2] = system: HCC1937; experiment: Cell cycle arrest in BRCA1-deficient human HCC1937 cells assessed as accumulation at G1 phase at 15 uM measured after 24 hrs by propidium iodide (PI) based FACS analysis (reference value: 31.6%); assay type: functional
[3] = system: HCC1937; experiment: Cell cycle arrest in BRCA1-deficient human HCC1937 cells assessed as accumulation at G2 phase at 1 uM measured after 24 hrs by propidium iodide (PI) based FACS analysis (reference value: 13.5%); assay type: functional
[4] = system: HCC1937; experiment: Cell cycle arrest in BRCA1-deficient human HCC1937 cells assessed as accumulation at S phase at 5 uM measured after 24 hrs by propidium iodide (PI) based FACS analysis (reference value: 26%); assay type: functional
[5] = system: HCC1937; experiment: Cell cycle arrest in BRCA1-deficient human HCC1937 cells assessed as accumulation at G2 phase at 5 uM measured after 24 hrs by propidium iodide (PI) based FACS analysis (reference value: 13.5%); assay type: functional
[6] = system: MDA-MB-436; experiment: Cell cycle arrest in BRCA1-deficient human MDA-MB-436 cells assessed as accumulation at G2 phase at 1 uM measured after 24 hrs by propidium iodide (PI) based FACS analysis (reference value: 17.6%); assay type: functional
[7] = system: HCC1937; experiment: Cell cycle arrest in BRCA1-deficient human HCC1937 cells assessed as accumulation at G2 phase at 15 uM measured after 24 hrs by propidium iodide (PI) based FACS analysis (reference value: 13.5%); assay type: functional
[8] = system: HCC1937; experiment: Cell cycle arrest in BRCA1-deficient human HCC1937 cells assessed as accumulation at G2 phase at 0.1 uM measured after 24 hrs by propidium iodide (PI) based FACS analysis (reference value: 13.5%); assay type: functional
[9] = system: MCF7; experiment: Induction of DNA damage in human MCF7 cells expressing BRCA1 at 0.1 to 15 uM assessed as increase in accumulation of DNA double-strand breaks measuring gamma-H2AX levels by Western blot analysis; assay type: functional, cell-based; conditions: dose 0.1-15 µM
[10] = system: MDA-MB-436; experiment: Cell cycle arrest in BRCA1-deficient human MDA-MB-436 cells assessed as accumulation at S phase at 0.1 uM measured after 24 hrs by propidium iodide (PI) based FACS analysis (reference value: 27.4%); assay type: functional
[11] = system: MDA-MB-436; experiment: Cell cycle arrest in BRCA1-deficient human MDA-MB-436 cells assessed as accumulation at S phase at 1 uM measured after 24 hrs by propidium iodide (PI) based FACS analysis (reference value: 27.4%); assay type: functional
[12] = system: MDA-MB-436; experiment: Antiproliferative activity against human MDA-MB-436 cells after 7 days by resazurin reduction assay; conditions: MDA-MB-436, 168 h
[13] = system: HCC1937; experiment: Cell cycle arrest in BRCA1-deficient human HCC1937 cells assessed as accumulation at G1 phase at 1 uM measured after 24 hrs by propidium iodide (PI) based FACS analysis (reference value: 31.6%); assay type: functional
[14] = system: MDA-MB-436; experiment: Induction of apoptosis in BRCA1-deficient human MDA-MB-436 cells at 0.1 to 15 uM measured after 24 hrs by Annexin V/propidium iodide (PI) based FACS analysis; assay type: functional, cell-based; conditions: dose 0.1-15 µM
[15] = system: MDA-MB-436; experiment: Cell cycle arrest in BRCA1-deficient human MDA-MB-436 cells assessed as accumulation at S phase at 5 uM measured after 24 hrs by propidium iodide (PI) based FACS analysis (reference value: 27.4%); assay type: functional
[16] = system: MDA-MB-436; experiment: Cell cycle arrest in BRCA1-deficient human MDA-MB-436 cells assessed as accumulation at G2 phase at 0.1 uM measured after 24 hrs by propidium iodide (PI) based FACS analysis (reference value: 17.6%); assay type: functional
[17] = system: HCC1937; experiment: Cell cycle arrest in BRCA1-deficient human HCC1937 cells assessed as accumulation at S phase at 0.1 uM measured after 24 hrs by propidium iodide (PI) based FACS analysis (reference value: 26%); assay type: functional
[18] = system: HCC1937; experiment: Cell cycle arrest in BRCA1-deficient human HCC1937 cells assessed as accumulation at S phase at 1 uM measured after 24 hrs by propidium iodide (PI) based FACS analysis (reference value: 26%); assay type: functional
[19] = system: HCC1937; experiment: Induction of apoptosis in BRCA1-deficient human HCC1937 cells at 0.1 to 15 uM measured after 24 hrs by Annexin V/propidium iodide (PI) based FACS analysis; assay type: functional, cell-based; conditions: dose 0.1-15 µM
[20] = system: MDA-MB-436; experiment: Cell cycle arrest in BRCA1-deficient human MDA-MB-436 cells assessed as accumulation at G1 phase at 15 uM measured after 24 hrs by propidium iodide (PI) based FACS analysis (reference value: 26.7%); assay type: functional
[21] = system: HCC1937; experiment: Cell cycle arrest in BRCA1-deficient human HCC1937 cells assessed as accumulation at S phase at 15 uM measured after 24 hrs by propidium iodide (PI) based FACS analysis (reference value: 26%); assay type: functional
[22] = system: HCC1937; experiment: Cell cycle arrest in BRCA1-deficient human HCC1937 cells assessed as accumulation at G1 phase at 5 uM measured after 24 hrs by propidium iodide (PI) based FACS analysis (reference value: 31.6%); assay type: functional
[23] = system: HCC1937; experiment: Antiproliferative activity against human HCC1937 cells after 7 days by resazurin reduction assay; conditions: HCC1937, 168 h
[24] = system: MDA-MB-436; experiment: Cell cycle arrest in BRCA1-deficient human MDA-MB-436 cells assessed as accumulation at G2 phase at 5 uM measured after 24 hrs by propidium iodide (PI) based FACS analysis (reference value: 17.6%); assay type: functional
[25] = system: MDA-MB-436; experiment: Cell cycle arrest in BRCA1-deficient human MDA-MB-436 cells assessed as accumulation at S phase at 15 uM measured after 24 hrs by propidium iodide (PI) based FACS analysis (reference value: 27.4%); assay type: functional
[26] = system: MDA-MB-436; experiment: Cell cycle arrest in BRCA1-deficient human MDA-MB-436 cells assessed as accumulation at G2 phase at 15 uM measured after 24 hrs by propidium iodide (PI) based FACS analysis (reference value: 17.6%); assay type: functional
[27] = system: HCC1937; experiment: Cell cycle arrest in BRCA1-deficient human HCC1937 cells assessed as accumulation at G1 phase at 0.1 uM measured after 24 hrs by propidium iodide (PI) based FACS analysis (reference value: 31.6%); assay type: functional
[28] = system: MDA-MB-436; experiment: Cell cycle arrest in BRCA1-deficient human MDA-MB-436 cells assessed as accumulation at G1 phase at 0.1 uM measured after 24 hrs by propidium iodide (PI) based FACS analysis (reference value: 26.7%); assay type: functional
[29] = system: MDA-MB-436; experiment: Cell cycle arrest in BRCA1-deficient human MDA-MB-436 cells assessed as accumulation at G1 phase at 5 uM measured after 24 hrs by propidium iodide (PI) based FACS analysis (reference value: 26.7%); assay type: functional
[30] = system: MDA-MB-436; experiment: Cell cycle arrest in BRCA1-deficient human MDA-MB-436 cells assessed as accumulation at G1 phase at 1 uM measured after 24 hrs by propidium iodide (PI) based FACS analysis (reference value: 26.7%); assay type: functional

In the case of COc1ccc(C(=O)C(=O)c2c(-c3ccc(OC)cc3)nc(NC(=O)CN3CCc4cc(OC)c(OC)cc4C3)n2C)cc1, the Activity [1] is reported as “Active”, the Activity [2] is reported as 7% and the Activity [3] is reported as 21.6%. It also gave an Activity [4] of 23.2%, an Activity [5] of 22.4% and an Activity [6] of 25.4%. The Activity [7] was 45.9%, the Activity [8] was 18.3% and the Activity [9] was “Active”. The Activity [10] was 30.2%, the Activity [11] was 21.5% and the IC50 [12] was 12.6 µM. The Activity [13] was 32.8%, the Activity [14] was “Active” and the Activity [15] was 29.1%. The Activity [16] was 17%, the Activity [17] was 19.9% and the Activity [18] was 18.7%. For the same compound, the Activity [19] was “Active”, the Activity [20] was 9.85% and the Activity [21] was 17.8%. It also gave an Activity [22] of 24.7%, an IC50 [23] of 17.8 µM and an Activity [24] of 32.8%. The Activity [25] was 33.3%, the Activity [26] was 28.5% and the Activity [27] was 36.6%. It also gave an Activity [28] of 23.3%, an Activity [29] of 10.4% and an Activity [30] of 25.1%.
